# Laboratory results taken from patent US20250262279A1, “DOSE REGIMEN FOR LONG-ACTING GLP1/GLUCAGON RECEPTOR AGONISTS” (Boehringer Ingelheim International GmbH, priority 2021, published 2025).
# Tests used:
# [1] = Example 1 Phase I titration study in obesity/overweight: safety and tolerability
# Text: Blinded within dose groups, randomised, placebo-controlled
# • Male patients (Part A); male and female patients (Part B) • Age 18 to <70 years • BMI 27 to <40 kg/m^2 • Body weight of at least 70 kg for women and 80 kg for men • Stable body weight, defined as no more than 5% change within 3 months prior to screening
# Further criteria of interest: • AEs (including clinically relevant findings from the physical examination and assessment of local tolerability) • Safety laboratory tests • 12-lead ECG • Vital signs (blood pressure, pulse rate) • Continuous ECG (including mean daily heart rate) • Assessment of local tolerability by the investigator • The cumulative number [N (%)] of patients withdrawn from up-titration by up-titration scheme and week
# Descriptive statistics were calculated for all endpoints. […] No formal interim analysis was conducted. Data from the completed 6-week cohorts were analysed before database lock for internal decision-making.
# [2] = plasma half-life in humans; format: in vivo; details: human, estimated
# [3] = Example 2 Phase I study in healthy Japanese men: safety and tolerability; format: in vivo, human
# Text: This study was a randomised, placebo-controlled, single-blind, and parallel-group clinical trial with up to 3 dose-escalation schemes (Dose Groups [DGs]1 to 3) in healthy Japanese male subjects with BMI 23 to 40 kg/m^2. The weekly (DG1 and DG2) or twice a week (DG3) dosing in this scheme allowed for immediate clinical evaluation whether a further increase in the cumulative weekly dose was safe and well tolerated. The treatment duration was 16 weeks in total including a dose escalation phase to minimize Gastrointestinal (GI) Adverse Events (AEs) of Compound I. This was followed by a 4-week follow-up period.
# The primary endpoint to assess the safety and tolerability of Compound I was the cumulative percentage (%) of subjects withdrawn from the up-titration by the dose escalation scheme.
# • AEs (including clinically relevant findings from the physical examination) • Safety laboratory tests • 12-lead electrocardiogram (ECG) • Continuous ECG monitoring • Vital signs (blood pressure, pulse rate) • Columbia-Suicide Severity Rating Scale (C-SSRS) • Change from baseline in heart rate following treatment with Compound I relative to placebo (until 24 hours after Compound I administration) • The cumulative number [N (%)] of subjects withdrawn from the up-titration by the dose escalation scheme and week
# The main objective of this trial was to assess the safety and tolerability of Compound I as well as PK and PD parameters by using descriptive statistics for all endpoints, which were compared across treatment groups. Further analysis comprised linear modelling for attainment of steady state in DG1.
# [4] = Ex.1 Part B, Weekly 6 (twice weekly)
smiles,measurement,setting,value
CC[C@H](C)[C@H](NC(=O)[C@H](Cc1ccccc1)NC(=O)[C@H](CC(=O)O)NC(=O)[C@H](CCCCN)NC(=O)[C@H](C)NC(=O)[C@H](C)NC(=O)[C@H](CCCNC(=N)N)NC(=O)[C@H](CCC(=O)O)NC(=O)[C@H](CC(=O)O)NC(=O)[C@H](CC(C)C)NC(=O)[C@H](Cc1ccc(O)cc1)NC(=O)[C@H](CCCCN)NC(=O)[C@H](CO)NC(=O)[C@H](Cc1ccc(O)cc1)NC(=O)[C@H](CC(=O)O)NC(=O)[C@H](CO)NC(=O)[C@@H](NC(=O)[C@H](Cc1ccccc1)NC(=O)[C@@H](NC(=O)CNC(=O)[C@H](CCC(N)=O)NC(=O)C1(NC(=O)[C@@H](N)Cc2c[nH]cn2)CCC1)[C@@H](C)O)[C@@H](C)O)C(=O)N[C@@H](CCCCNC(=O)CNC(=O)CNC(=O)[C@H](CO)NC(=O)CNC(=O)[C@H](CO)NC(=O)CNC(=O)CC[C@H](NC(=O)CCCCCCCCCCCCCCCCC(=O)O)C(=O)O)C(=O)N[C@@H](Cc1c[nH]c2ccccc12)C(=O)N[C@@H](CC(C)C)C(=O)N[C@@H](CCC(=O)O)C(=O)N[C@@H](CO)C(=O)N[C@@H](C)C(N)=O [Compound I],clinical laboratory analyses,[1]; Ex.1 Part A,no treatment-emergent clinically relevant findings
same,deaths,[1]; Ex.1 Part A,No patients died
same,Patients withdrawn from up-titration,"[1]; Ex.1 Part A (6 wk), Compound I total",27 (40.3) N (%)
same,Patients withdrawn from up-titration,"[1]; Ex.1 Part A (6 wk), Weekly 1",6 (35.3) N (%)
same,Patients withdrawn from up-titration,"[1]; Ex.1 Part A (6 wk), Weekly 2",8 (44.4) N (%)
same,Patients withdrawn from up-titration,"[1]; Ex.1 Part A (6 wk), Weekly 3",13 (76.5) N (%)
same,Patients with AE leading to discontinuation of trial drug,"[1]; Ex.1 Part A, Cmp I total",5 (7.5) N (%)
same,Patients with any AE,"[1]; Ex.1 Part A, Cmp I total",67 (100) N (%)
same,Patients with investigator defined drug-related AE,"[1]; Ex.1 Part A, Cmp I total",67 (100) N (%)
same,Patients with other significant AEs (ICH E3),"[1]; Ex.1 Part A, Cmp I total",5 (7.5) N (%)
same,Patients with serious AE,"[1]; Ex.1 Part A, Cmp I total",1 (1.5) N (%)
same,Patients with severe AE,"[1]; Ex.1 Part A, Cmp I total",3 (4.5) N (%)
same,Patients with AE leading to discontinuation of trial drug,"[1]; Ex.1 Part A, Daily",0 N (%)
same,Patients with any AE,"[1]; Ex.1 Part A, Daily",15 (100) N (%)
same,Patients with investigator defined drug-related AE,"[1]; Ex.1 Part A, Daily",15 (100) N (%)
same,Patients with other significant AEs (ICH E3),"[1]; Ex.1 Part A, Daily",0 N (%)
same,Patients with serious AE,"[1]; Ex.1 Part A, Daily",0 N (%)
same,Patients with severe AE,"[1]; Ex.1 Part A, Daily",0 N (%)
same,"drug-related abdominal distension, frequency","[1]; Ex.1 Part A, Daily",13.3%
same,drug-related cardiac disorders,"[1]; Ex.1 Part A, Daily",No drug-related cardiac disorders were reported
same,"drug-related vomiting, frequency","[1]; Ex.1 Part A, Daily",no cases
same,Patients with AE leading to discontinuation of trial drug,"[1]; Ex.1 Part A, Weekly 1",1 (5.9) N (%)
same,Patients with any AE,"[1]; Ex.1 Part A, Weekly 1",17 (100) N (%)
same,Patients with investigator defined drug-related AE,"[1]; Ex.1 Part A, Weekly 1",17 (100) N (%)
same,Patients with other significant AEs (ICH E3),"[1]; Ex.1 Part A, Weekly 1",1 (5.9) N (%)
same,Patients with serious AE,"[1]; Ex.1 Part A, Weekly 1",0 N (%)
same,Patients with severe AE,"[1]; Ex.1 Part A, Weekly 1",1 (5.9) N (%)
same,proportion of patients who withdrew from up-titration,"[1]; Ex.1 Part A, Weekly 1",35.3%
same,patients with severe diarrhoea,"[1]; Ex.1 Part A, Weekly 1 and Weekly 2",2 patients
same,Patients with AE leading to discontinuation of trial drug,"[1]; Ex.1 Part A, Weekly 2",2 (11.1) N (%)
same,Patients with any AE,"[1]; Ex.1 Part A, Weekly 2",18 (100) N (%)
same,Patients with investigator defined drug-related AE,"[1]; Ex.1 Part A, Weekly 2",18 (100) N (%)
same,Patients with other significant AEs (ICH E3),"[1]; Ex.1 Part A, Weekly 2",2 (11.1) N (%)
same,Patients with serious AE,"[1]; Ex.1 Part A, Weekly 2",1 (5.6) N (%)
same,Patients with severe AE,"[1]; Ex.1 Part A, Weekly 2",2 (11.1) N (%)
same,patients with severe vomiting,"[1]; Ex.1 Part A, Weekly 2",one
same,proportion of patients who withdrew from up-titration,"[1]; Ex.1 Part A, Weekly 2",44.4%
same,patients with serious AE ventricular tachycardia,"[1]; Ex.1 Part A, Weekly 2, assessed as drug-related, led to discontinuation",One
same,Patients with AE leading to discontinuation of trial drug,"[1]; Ex.1 Part A, Weekly 3",2 (11.8) N (%)
same,Patients with any AE,"[1]; Ex.1 Part A, Weekly 3",17 (100) N (%)
same,Patients with investigator defined drug-related AE,"[1]; Ex.1 Part A, Weekly 3",17 (100) N (%)
same,Patients with other significant AEs (ICH E3),"[1]; Ex.1 Part A, Weekly 3",2 (11.8) N (%)
same,Patients with serious AE,"[1]; Ex.1 Part A, Weekly 3",0 N (%)
same,Patients with severe AE,"[1]; Ex.1 Part A, Weekly 3",0 N (%)
same,proportion of patients who withdrew from up-titration,"[1]; Ex.1 Part A, Weekly 3",76.5%
same,proportion of patients who withdrew from up-titration,"[1]; Ex.1 Part A, all Compound I groups",40.3%
same,"continuous ECG monitoring over 24 hours, mean heart rate","[1]; Ex.1 Part A, all Compound I treatment groups",increases in mean heart rate
same,clinical laboratory analyses,[1]; Ex.1 Part B,no treatment-emergent clinically relevant findings
same,deaths,[1]; Ex.1 Part B,No patients died
same,drug-related cardiac disorders,[1]; Ex.1 Part B,no cases
same,Patients withdrawn from up-titration,"[1]; Ex.1 Part B (16 wk), Compound I total",8 (22.2) N (%)
same,Patients withdrawn from up-titration,"[1]; Ex.1 Part B (16 wk), Weekly 4",3 (23.1) N (%)
same,Patients withdrawn from up-titration,"[1]; Ex.1 Part B (16 wk), Weekly 5",4 (36.4) N (%)
same,Patients withdrawn from up-titration,"[1]; Ex.1 Part B (16 wk), Weekly 6 (twice weekly)",1 (8.3) N (%)
same,Patients with AE leading to discontinuation of trial drug,"[1]; Ex.1 Part B, Cmp I Total",6 (16.7) N (%)
same,Patients with any AE,"[1]; Ex.1 Part B, Cmp I Total",35 (97.2) N (%)
same,Patients with investigator defined drug-related AE,"[1]; Ex.1 Part B, Cmp I Total",35 (97.2) N (%)
same,Patients with other significant AEs (ICH E3),"[1]; Ex.1 Part B, Cmp I Total",8 (22.2) N (%)
same,Patients with serious AE,"[1]; Ex.1 Part B, Cmp I Total",0 N (%)
same,Patients with severe AE,"[1]; Ex.1 Part B, Cmp I Total",8 (22.2) N (%)
same,Patients with AE leading to discontinuation of trial drug,"[1]; Ex.1 Part B, Weekly 4",3 (23.1) N (%)
same,Patients with any AE,"[1]; Ex.1 Part B, Weekly 4",13 (100.0) N (%)
same,Patients with investigator defined drug-related AE,"[1]; Ex.1 Part B, Weekly 4",13 (100.0) N (%)
same,Patients with other significant AEs (ICH E3),"[1]; Ex.1 Part B, Weekly 4",4 (30.8) N (%)
same,Patients with serious AE,"[1]; Ex.1 Part B, Weekly 4",0 N (%)
same,Patients with severe AE,"[1]; Ex.1 Part B, Weekly 4",4 (30.8) N (%)
same,"drug-related gastrointestinal disorders, frequency","[1]; Ex.1 Part B, Weekly 4",92.3%
same,Patients with AE leading to discontinuation of trial drug,"[1]; Ex.1 Part B, Weekly 5",2 (18.2) N (%)
same,Patients with any AE,"[1]; Ex.1 Part B, Weekly 5",11 (100.0) N (%)
same,Patients with investigator defined drug-related AE,"[1]; Ex.1 Part B, Weekly 5",11 (100.0) N (%)
same,Patients with other significant AEs (ICH E3),"[1]; Ex.1 Part B, Weekly 5",3 (27.3) N (%)
same,Patients with serious AE,"[1]; Ex.1 Part B, Weekly 5",0 N (%)
same,Patients with severe AE,"[1]; Ex.1 Part B, Weekly 5",4 (36.4) N (%)
same,"drug-related gastrointestinal disorders, frequency","[1]; Ex.1 Part B, Weekly 5",all patients
same,proportion of patients who withdrew from up-titration,"[1]; Ex.1 Part B, Weekly 5",36.4%
same,Patients with AE leading to discontinuation of trial drug,[1]; [4],1 (8.3) N (%)
same,Patients with any AE,[1]; [4],11 (91.7) N (%)
same,Patients with investigator defined drug-related AE,[1]; [4],11 (91.7) N (%)
same,Patients with other significant AEs (ICH E3),[1]; [4],1 (8.3) N (%)
same,Patients with serious AE,[1]; [4],0 N (%)
same,Patients with severe AE,[1]; [4],0 N (%)
same,"drug-related gastrointestinal disorders, frequency",[1]; [4],58.3%
same,proportion of patients who withdrew from up-titration,[1]; [4],8.3%
same,proportion of patients who withdrew from up-titration,"[1]; Ex.1 Part B, all Compound I groups",22.2%
same,"ECG analyses, heart rate","[1]; Ex.1 Part B, all Compound I treatment groups",increases in heart rate
same,half-life,[2],~110 h
same,AEs in the cardiac disorder class,[3]; Ex.2,no AEs reported
same,clinical laboratory values,[3]; Ex.2,Findings of clinical relevance were not observed
same,deaths and AEs of special interest,[3]; Ex.2,neither deaths nor AEs of special interest reported
same,"vital signs, ECG evaluation, local tolerability, suicidal risk assessment",[3]; Ex.2,No clinically relevant findings
same,Subjects with investigator defined drug-related AEs,[3]; Ex.2 Cmp I Total,27 N
same,Number of subjects withdrawn from the up-titration,[3]; Ex.2 Compound I Total,10 N
same,pulse rate,[3]; Ex.2 Compound I dosing groups,expected increase in pulse rate
same,Number of subjects withdrawn from the up-titration,[3]; Ex.2 DG1,2 N
same,subjects with AE decreased appetite,[3]; Ex.2 DG1,8 subjects
same,subjects with AE decreased appetite,"[3]; Ex.2 DG1, of 9 trial subjects",88.9%
same,Number of subjects withdrawn from the up-titration,[3]; Ex.2 DG2,6 N
same,subjects with AE decreased appetite,[3]; Ex.2 DG2,9 subjects
same,subjects with severe vomiting,[3]; Ex.2 DG2,1 subject
same,subjects with AE decreased appetite,"[3]; Ex.2 DG2, of 9 trial subjects",100.0%
same,subjects with severe vomiting,"[3]; Ex.2 DG2, of 9 trial subjects",11.1%
same,subjects with AE decreased appetite,[3]; Ex.2 DG3,7 subjects
same,subjects with severe diarrhoea,[3]; Ex.2 DG3,1 subject
same,Number of subjects withdrawn from the up-titration,[3]; Ex.2 DG3 (twice weekly),2 N
same,subjects with AE decreased appetite,"[3]; Ex.2 DG3, of 9 trial subjects",77.8%
same,subjects with severe diarrhoea,"[3]; Ex.2 DG3, of 9 trial subjects",11.1%
